Measurements from patent publication US20090196862A1, “High dosage Vitamin D” (priority 2008, published 2009).

How the values were obtained:
[1] = literature report; cited from earlier work
[2] = Clinical observation of lipids, inflammatory levels and blood pressure on oral D3; format: in vivo, human; details: oral administration
From the text: The present inventor observed lipid effects (reduced triglycerides, a raise in the levels of HDL [“good cholesterol”] and a reduction in LDL particles [“bad cholesterol”]) from oral supplementation of an oil-based preparation of D3.

atherosclerotic plaque = assay: Coronary / atherosclerotic plaque by heart CT scan score in patients; format: in vivo, human; details: for effect on plaques (heart CT scan score): patients with coronary plaques
Procedure: In clinical practice with regard to plaque formation, the present inventor observed that blood serum levels of D3 of about 50 ng/mL provide sufficient effect. Below 50 ng/mL, there is an incremental effect, with a very small effect as low as 20 ng/mL, but a significant effect emerging at 40-45 ng/mL. By 50 ng/mL, there is a significant and often sufficient effect. About 50 ng/mL of 25-hydroxy-vitamin D [25(OH)D] in blood serum provides a reasonably strong effect against plaque buildup.

Row | SMILES | conversion of D2 to D3 in humans [1] | blood pressure [2] | inflammatory levels [2] | blood serum level of D3 at which a significant effect emerges (plaque formation) (atherosclerotic plaque; clinical practice) | blood serum level of D3 providing sufficient effect on plaque formation (atherosclerotic plaque; clinical practice) | blood serum level of D3 with a very small effect (plaque formation) (atherosclerotic plaque; clinical practice) | effect on plaques (heart CT scan score) (atherosclerotic plaque; listed as oral D3) | effect on plaques (heart CT scan score) (atherosclerotic plaque; listed as vitamin D)
1 | C=C1CC[C@H](O)C/C1=C/C=C1\CCC[C@]2(C)[C@@H]([C@H](C)/C=C/[C@H](C)C(C)C)CC[C@@H]12 [D2, ergocalciferol] | ≤ 70% |  |  |  |  |  |  | 
2 | C=C1CC[C@H](O)C/C1=C/C=C1\CCC[C@]2(C)[C@@H]([C@H](C)CCCC(C)C)CC[C@@H]12 [D3, cholecalciferol] |  | reductions | reductions | 40 to 45 ng/mL | about 50 ng/mL | 20 ng/mL | positive effect | decreased evidence of plaques
